Experimental data taken from US11535632B2, “Solid forms of an S1P-receptor modulator” (ESCAPE Bio, Inc., priority 2019, dated 2022).
Like-named read-outs stand apart in the source and are kept apart here.

Legend:
Type in all cases: physicochemical
[1] = Competitive slurries of Form B and C in process relevant solvents; settings: 90° C. in DMSO
Procedure: Determination of the relative stabilities of Form B and Form C was undertaken to identify which material was more thermodynamically stable in process relevant solvents. As a suspected solvate was isolated from experiments where DMAC was used as a solvent, only DMSO and acetic acid were determined to be appropriate process solvents. Combinations of these solvents with relevant antisolvents were therefore selected for the competitive slurry experiments.
Compound 1 (from Example 2) was dispensed into HPLC vials. To these, 1 ml of selected solvents was subsequently added to give a suspension. Materials were slurried for 72 hours at 90° C., 50° C. or 25° C. with 500 rpm stirring. Material was subsequently isolated by centrifugation and analyzed by XRPD.

[2] = Solid state stability study
From the text: The two lots of Compound 1 were characterized by HPLC, PLM, XRPD, DSC, TGA, and KF. […] According to the stability study at different conditions, the two forms of compound were practically stable at different humidity for at least 4 weeks, with no XRPD pattern change and no growth of impurities were found.

[3] = Room temperature equilibrium solubility in aqueous suspensions; settings: listed as Compound 1, Form A; for Total drug in solution: room temperature equilibrium, HPLC of supernatant
[4] = Hygroscopicity evaluation by DVS at 25° C.
Procedure: Hygroscopicity of Compound 1, Form A and Compound 1, Form B was evaluated by DVS at 25° C.

[5] = Solubility and metastable zone width by Crystal 16; settings: damp material isolated from DMAC, dried
Procedure: A Crystal 16 crystallization system (Technobis, NL) was used to determine the solubility and metastable zone of the material as a function of temperature. Slurries of the API, in different overall concentrations, were prepared by adding a known amount of solid to a known amount of chilled solvent (between 0.5 and 1.5 ml) and stirred at 350 rpm using a magnetic bar. The saturation temperature was measured through cycles of heating and cooling from 20 to 90° C. at 0.5° C./min.
Upon increasing the temperature, the solid completely dissolved and the suspension became a clear solution such that the light transmission reached its maximum value. This temperature was assigned as the clear point, which was assumed to coincide with the saturation temperature. Then, by cooling the solution at a rate of 0.5° C./min, the temperature at which particles first formed was detected by a decrease in the light transmission. This was assigned as the cloud point. The points were fitted by a Van′t Hoff equation and the difference between the cloud and the clear points defined the metastable zone width (MSZW) of the system. The instrument control software was Crystallization Systems and the data were analyzed using Crystal Clear and Microsoft Excel.
The solubility of compound 1 (various masses) in DMAC and DMSO (1 ml) was analyzed on the Crystal 16 (between 25-90° C. for DMSO and 0-90° C. for DMAC). A heating/cooling rate of 0.5° C./min and a stirring rate of 300 rpm was used for all samples. The resulting turbidity/temperature plots were analyzed to obtain solubility curves and determine the metastable zone width. Any precipitated solids were isolated by filtration and analyzed by XRPD.

SMILES: O=C(O)[C@H]1C[C@@H](N2CCc3oc(-c4ccc(OCc5ccc(Cl)cc5)cc4)nc3C2)C1 [Form A, (1s,3s)-3-(2-(4-((4-chlorobenzyl)oxy)phenyl)-6,7-dihydrooxazolo[4,5-c]pyridin-5(4H)-yl)cyclobutane-1-carboxylic acid]
- Relative thermodynamic stability [1]: most thermodynamically stable polymorph
- Crystallinity (XRPD & PLM) ([2]; 4 weeks, 25° C./60% RH): Crystalline
- Purity ([2]; 4 weeks, 25° C./60% RH): 99.48%
- Weight loss (TGA) (~120° C.) ([2]; 4 weeks, 25° C./60% RH): 0.981%
- Crystallinity (XRPD & PLM) ([2]; 4 weeks, 40° C./75% RH): Crystalline
- Purity ([2]; 4 weeks, 40° C./75% RH): 99.46%
- Weight loss (TGA) (~120° C.) ([2]; 4 weeks, 40° C./75% RH): 0.884%
- Crystallinity (XRPD & PLM) ([2]; 6 weeks, 25° C./60% RH): Crystalline
- Purity ([2]; 6 weeks, 25° C./60% RH): 99.54%
- Water content ([2]; 6 weeks, 25° C./60% RH): 0.784%
- Weight loss (TGA) (~120° C.) ([2]; 6 weeks, 25° C./60% RH): 0.831%
- Crystallinity (XRPD & PLM) ([2]; 6 weeks, 40° C./75% RH): Crystalline
- Purity ([2]; 6 weeks, 40° C./75% RH): 99.47%
- Water content ([2]; 6 weeks, 40° C./75% RH): 0.547%
- Weight loss (TGA) (~120° C.) ([2]; 6 weeks, 40° C./75% RH): 0.739%
- Crystallinity (XRPD & PLM) ([2]; 8 weeks, 25° C./60% RH): Crystalline
- Purity ([2]; 8 weeks, 25° C./60% RH): 99.51%
- Water content ([2]; 8 weeks, 25° C./60% RH): 0.559%
- Weight loss (TGA) (~120° C.) ([2]; 8 weeks, 25° C./60% RH): 0.946%
- Crystallinity (XRPD & PLM) ([2]; 8 weeks, 40° C./75% RH): Crystalline
- Purity ([2]; 8 weeks, 40° C./75% RH): 99.53%
- Water content ([2]; 8 weeks, 40° C./75% RH): 0.608%
- Weight loss (TGA) (~120° C.) ([2]; 8 weeks, 40° C./75% RH): 0.801%
- Crystallinity (XRPD & PLM) ([2]; Initial): Crystalline
- Purity ([2]; Initial): 99.46%
- Water content ([2]; Initial): 0.513%
- Weight loss (TGA) (~120° C.) ([2]; Initial): 0.722%
- Total drug in solution ([3]; 0.2% HPMC aqueous suspension): 1.3 µg/mL
- pH ([3]; 0.2% HPMC aqueous suspension): 7.2
- Total drug in solution ([3]; 0.25% SLS aqueous suspension): 23.7 µg/mL
- pH ([3]; 0.25% SLS aqueous suspension): 6.9
- Total drug in solution ([3]; 20% HP-BCD aqueous suspension): 446.5 µg/mL
- pH ([3]; 20% HP-BCD aqueous suspension): 5.7
- XRPD after DVS test [4]: No form change but crystallinity
- DVS Desorp. (%) ([4]; 0% RH, 1st Desorp.): 0.00%
- DVS Sorp. (%) ([4]; 0% RH, 1st Sorp.): 0.00%
- DVS Desorp. (%) ([4]; 0% RH, 2nd Desorp.): 0.00%
- DVS Sorp. (%) ([4]; 0% RH, 2nd Sorp.): 0.00%
- DVS Desorp. (%) ([4]; 10% RH, 1st Desorp.): 0.01%
- DVS Sorp. (%) ([4]; 10% RH, 1st Sorp.): 0.00%
- DVS Desorp. (%) ([4]; 10% RH, 2nd Desorp.): 0.01%
- DVS Sorp. (%) ([4]; 10% RH, 2nd Sorp.): 0.00%
- DVS Desorp. (%) ([4]; 20% RH, 1st Desorp.): 0.01%
- DVS Sorp. (%) ([4]; 20% RH, 1st Sorp.): −0.01%
- DVS Desorp. (%) ([4]; 20% RH, 2nd Desorp.): 0.01%
- DVS Sorp. (%) ([4]; 20% RH, 2nd Sorp.): 0.00%
- DVS Desorp. (%) ([4]; 30% RH, 1st Desorp.): 0.02%
- DVS Sorp. (%) ([4]; 30% RH, 1st Sorp.): 0.00%
- DVS Desorp. (%) ([4]; 30% RH, 2nd Desorp.): 0.02%
- DVS Sorp. (%) ([4]; 30% RH, 2nd Sorp.): 0.01%
- DVS Desorp. (%) ([4]; 40% RH, 1st Desorp.): 0.02%
- DVS Sorp. (%) ([4]; 40% RH, 1st Sorp.): 0.00%
- DVS Desorp. (%) ([4]; 40% RH, 2nd Desorp.): 0.02%
- DVS Sorp. (%) ([4]; 40% RH, 2nd Sorp.): 0.01%
- DVS Sorp. (%) ([4]; 50% RH, 1st Sorp.): 0.01%
- DVS Desorp. (%) ([4]; 50% RH, 2nd Desorp.): 0.03%
- DVS Sorp. (%) ([4]; 60% RH, 1st Sorp.): 0.01%
- DVS Desorp. (%) ([4]; 60% RH, 2nd Desorp.): 0.03%
- DVS Sorp. (%) ([4]; 70% RH, 1st Sorp.): 0.02%
- DVS Desorp. (%) ([4]; 70% RH, 2nd Desorp.): 0.04%
- DVS Sorp. (%) ([4]; 80% RH, 1st Sorp.): 0.02%
- DVS Desorp. (%) ([4]; 80% RH, 2nd Desorp.): 0.04%
- DVS Sorp. (%) ([4]; 90% RH, 1st Sorp.): 0.03%
- DVS Desorp. (%) ([4]; 90% RH, 2nd Desorp.): 0.04%
- DVS Sorp. (%) ([4]; 95% RH, 1st Sorp.): 0.01%
- DVS Desorp. (%) ([4]; 95% RH, 2nd Desorp.): 0.01%
- Hygroscopicity based on DVS results ([4]; listed as Compound 1, Form A): non-hygroscopic
- XRPD after DVS test ([4]; listed as Compound 1, Form A): no form change but crystallinity decreased and peaks became broad

SMILES: O=C(O)[C@H]1C[C@@H](N2CCc3oc(-c4ccc(OCc5ccc(Cl)cc5)cc4)nc3C2)C1 [Form D, (1s,3s)-3-(2-(4-((4-chlorobenzyl)oxy)phenyl)-6,7-dihydrooxazolo[4,5-c]pyridin-5(4H)-yl)cyclobutane-1-carboxylic acid]
- Form change upon drying (XRPD) [5]: converted to Form C
